Measurements taken from the NIST ThermoML archive (doi:10.1021/je301301j).

What was measured:
[1] = Liquid; for mass density: Vibrating tube method; for viscosity: Concentric cylinders viscometry
[2] = molar heat capacity at constant pressure; details: Liquid, Flow calorimetry
[3] = xn = mol fraction of the nth substance listed; details: 100 kPa, Liquid, Concentric cylinders viscometry, x1 = 1

C=CCCCC [hex-1-ene]
Details	mass density [kg/m3]	molar heat capacity at constant pressure [J/K/mol]	viscosity [mPa·s]
[1], 273.15 K, 100 kPa	691.5	–	–
[1], 273.15 K, 1000 kPa	692.1	–	–
[1], 273.15 K, 2000 kPa	693	–	–
[1], 273.15 K, 5000 kPa	695.8	–	–
[1], 273.15 K, 10000 kPa	700	–	–
[1], 273.15 K, 15000 kPa	704	–	–
[1], 273.15 K, 20000 kPa	707.8	–	–
[1], 273.15 K, 30000 kPa	715	–	–
[1], 273.15 K, 40000 kPa	721.6	–	–
[1], 273.15 K, 50000 kPa	727.6	–	–
[1], 273.15 K, 60000 kPa	733.2	–	–
[1], 273.15 K, 70000 kPa	738.7	–	–
[1], 293.15 K, 100 kPa	672.8	–	0.28
[1], 293.15 K, 1000 kPa	673.8	–	–
[1], 293.15 K, 2000 kPa	674.9	–	–
[1], 293.15 K, 5000 kPa	678	–	–
[1], 293.15 K, 10000 kPa	682.9	–	–
[1], 293.15 K, 15000 kPa	687.5	–	–
[1], 293.15 K, 20000 kPa	691.8	–	–
[1], 293.15 K, 30000 kPa	699.8	–	–
[1], 293.15 K, 40000 kPa	707	–	–
[1], 293.15 K, 50000 kPa	713.7	–	–
[1], 293.15 K, 60000 kPa	719.9	–	–
[1], 293.15 K, 70000 kPa	725.8	–	–
[1], 303.15 K, 100 kPa	–	–	0.257
[1], 313.15 K, 100 kPa	653.8	–	0.236
[1], 313.15 K, 1000 kPa	654.9	–	–
[1], 313.15 K, 2000 kPa	656.2	–	–
[1], 313.15 K, 5000 kPa	659.9	–	–
[1], 313.15 K, 10000 kPa	665.5	–	–
[1], 313.15 K, 15000 kPa	670.8	–	–
[1], 313.15 K, 20000 kPa	675.7	–	–
[1], 313.15 K, 30000 kPa	684.6	–	–
[1], 313.15 K, 40000 kPa	692.6	–	–
[1], 313.15 K, 50000 kPa	699.9	–	–
[1], 313.15 K, 60000 kPa	706.9	–	–
[1], 313.15 K, 70000 kPa	713	–	–
[1], 333.15 K, 100 kPa	634	–	–
[1], 333.15 K, 1000 kPa	635.4	–	–
[1], 333.15 K, 2000 kPa	636.9	–	–
[1], 333.15 K, 5000 kPa	641.3	–	–
[1], 333.15 K, 10000 kPa	647.8	–	–
[1], 333.15 K, 15000 kPa	653.9	–	–
[1], 333.15 K, 20000 kPa	659.5	–	–
[1], 333.15 K, 30000 kPa	669.5	–	–
[1], 333.15 K, 40000 kPa	678.4	–	–
[1], 333.15 K, 50000 kPa	686.3	–	–
[1], 333.15 K, 60000 kPa	693.7	–	–
[1], 333.15 K, 70000 kPa	700.5	–	–
[2], 293.15 K, 100 kPa	–	179.2	–
[2], 293.15 K, 5000 kPa	–	174.9	–
[2], 293.15 K, 10000 kPa	–	172.7	–
[2], 293.15 K, 15000 kPa	–	169.9	–
[2], 293.15 K, 20000 kPa	–	168.1	–
[2], 293.15 K, 25000 kPa	–	165.7	–
[2], 313.15 K, 100 kPa	–	188.8	–
[2], 313.15 K, 5000 kPa	–	185.9	–
[2], 313.15 K, 10000 kPa	–	183.1	–
[2], 313.15 K, 15000 kPa	–	181.6	–
[2], 313.15 K, 20000 kPa	–	179.6	–
[2], 313.15 K, 25000 kPa	–	177.2	–

CCCCO [butan-1-ol]
[1], 100 kPa
Details	viscosity [mPa·s]
293.15 K	2.953
303.15 K	2.263
313.15 K	1.769

CCCCO [butan-1-ol] + C=CCCCC
[3]
Details	viscosity [mPa·s]
293.15 K	2.953
303.15 K	2.263
313.15 K	1.769
